Data reported in ChEMBL document CHEMBL1201862, “PubChem BioAssay data set” (2004).
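Interpolation was linear, between the two tested concentrations surrounding the appropriate level; five concentrations were tested over 48 hours in 96-well plates. Abbreviation: GI50, concentration required for 50% inhibition of growth.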 Calls of active or inactive are those of the source. Cut-off read from the data, not from the text of the source: active = GI50 up to about 1.1 µM and inactive = higher.

Assays:
Assay in all cases: NCI anticancer screen, dose series, 48 h
MOLT-4 = test system: MOLT-4
UACC-257 = test system: UACC-257
MDA-N = test system: MDA-N
A498 = test system: A498
SR = test system: SR
SF-268 = test system: SF-268
MCF7 = test system: MCF7
MDA-MB-435 = test system: MDA-MB-435
HOP-62 = test system: HOP-62
SNB-75 = test system: SNB-75
NCI-H226 = test system: NCI-H226
NCI-H522 = test system: NCI-H522
OVCAR-8 = test system: OVCAR-8
CAKI-1 = test system: CAKI-1
SK-OV-3 = test system: SK-OV-3
MDA-MB-231 = test system: MDA-MB-231
U-251 = test system: U-251
SK-MEL-2 = test system: SK-MEL-2
SF-539 = test system: SF-539

Row | SMILES | GI50 (MOLT-4) | GI50 (UACC-257) | GI50 (MDA-N) | GI50 (A498) | GI50 (SR) | GI50 (SF-268) | GI50 (MCF7) | GI50 (MDA-MB-435) | GI50 (HOP-62) | GI50 (SNB-75) | GI50 (NCI-H226) | GI50 (NCI-H522) | GI50 (OVCAR-8) | GI50 (CAKI-1) | GI50 (SK-OV-3) | GI50 (MDA-MB-231) | GI50 (U-251) | GI50 (SK-MEL-2) | GI50 (SF-539)
1 | O=C(/C=C/c1csc(-c2ccccc2)n1)NCc1ccc(C(=O)NCCc2ccccc2)cc1 | > 100 µM (inactive) | 27.2 µM (inactive) | > 100 µM (inactive) | 19.8 µM (inactive) | > 100 µM (inactive) | 5.94 µM (inactive) | 72.3 µM (inactive) | > 100 µM (inactive) | 2.64 µM (inactive) | 2.6 µM (inactive) | 25.5 µM (inactive) | 34.6 µM (inactive) | 4.23 µM (inactive) | 15.6 µM (inactive) | 12.3 µM (inactive) | 5.38 µM (inactive) | 5.16 µM (inactive) | 32 µM (inactive) | 
2 | COc1cc(C2SCCCCCCCCCCSC(c3ccc(O)c(OC)c3)SCCCCCCCCCCS2)ccc1O (stereo not drawn) | 26.3 µM (inactive) | > 100 µM (inactive) | > 100 µM (inactive) | > 100 µM (inactive) | 56.1 µM (inactive) | 52.1 µM (inactive) | > 100 µM (inactive) | > 100 µM (inactive) | > 100 µM (inactive) | 52.6 µM (inactive) | > 100 µM (inactive) | > 100 µM (inactive) | > 100 µM (inactive) | > 100 µM (inactive) | > 100 µM (inactive) | > 100 µM (inactive) | > 100 µM (inactive) | > 100 µM (inactive) | 
3 | CC(=O)O[C@@H](c1nccn1Cc1ccccc1)[C@H]1OC(C)(C)O[C@@H]1[C@H]1COC(C)(C)O1 | > 100 µM (inactive) | > 100 µM (inactive) | > 100 µM (inactive) | > 100 µM (inactive) | > 10 µM (inactive) | > 100 µM (inactive) | > 100 µM (inactive) | > 100 µM (inactive) | > 100 µM (inactive) | > 100 µM (inactive) | > 100 µM (inactive) | > 100 µM (inactive) | > 100 µM (inactive) | > 100 µM (inactive) |  | > 100 µM (inactive) | > 100 µM (inactive) | > 100 µM (inactive) | > 100 µM (inactive)
4 | CN1CCN(Cn2nc(COc3ccccc3Cl)n(/N=C/c3ccc(-c4ccc(Cl)cc4Cl)o3)c2=S)CC1 | 24.5 µM (inactive) | 34.8 µM (inactive) | 23.5 µM (inactive) | 19.1 µM (inactive) | 24.3 µM (inactive) | 54.5 µM (inactive) | 19.6 µM (inactive) | 24.8 µM (inactive) | 21.4 µM (inactive) |  | 51.5 µM (inactive) | 26.2 µM (inactive) | 27 µM (inactive) | 22.7 µM (inactive) | 35.5 µM (inactive) | 26.4 µM (inactive) | 19.3 µM (inactive) | 22.4 µM (inactive) | 27 µM (inactive)
5 | COc1ccc(/C=C2\N=C3NC(=O)C(N4CCOCC4)=C(N)N3C2=O)cc1 | > 100 µM (inactive) | > 100 µM (inactive) | > 100 µM (inactive) | > 100 µM (inactive) | 29.9 µM (inactive) | 76.2 µM (inactive) | > 100 µM (inactive) | > 100 µM (inactive) |  | 24.8 µM (inactive) | > 100 µM (inactive) | 75.3 µM (inactive) | > 100 µM (inactive) | > 100 µM (inactive) | > 100 µM (inactive) | > 100 µM (inactive) | 53.7 µM (inactive) |  | > 100 µM (inactive)
6 | Cc1c(F)c(NC(=O)CN(C)C)c2c(=O)cc(-c3ccc(NC(=O)CN(C)C)c(F)c3)oc2c1F | 11.2 µM (inactive) | 21.9 µM (inactive) | 16.4 µM (inactive) | 1.35 µM (inactive) | 1.5 µM (inactive) | 16.6 µM (inactive) | 13.4 µM (inactive) | 12.6 µM (inactive) | 16.6 µM (inactive) |  | 12.6 µM (inactive) | 17.5 µM (inactive) | 17.8 µM (inactive) | 10.9 µM (inactive) | 16.8 µM (inactive) | 13.6 µM (inactive) | 14.2 µM (inactive) | 19.2 µM (inactive) | 17.3 µM (inactive)
7 | O=C(NCCCCCCO)c1cccc2cc3ccccc3nc12 | 16.7 µM (inactive) | 17.6 µM (inactive) | 3.61 µM (inactive) | > 10 µM (inactive) | > 10 µM (inactive) |  | 20.4 µM (inactive) | 21.7 µM (inactive) | 17.9 µM (inactive) | 21.9 µM (inactive) | 16.6 µM (inactive) | 13.3 µM (inactive) | 32.3 µM (inactive) | 17.4 µM (inactive) | 22.4 µM (inactive) | 21 µM (inactive) | 38.9 µM (inactive) | 16.1 µM (inactive) | 16.7 µM (inactive)
8 | CC(C)C[C@H](NC(=O)[C@@H](N)Cc1cccc2ccccc12)B(O)O | < 0.0177 µM (active) | 0.0311 µM (active) | 0.182 µM (active) | < 0.0189 µM (active) | < 0.0154 µM (active) |  | < 0.0232 µM (active) | < 0.0134 µM (active) | 0.0575 µM (active) | 0.0259 µM (active) | < 0.0132 µM (active) | 0.187 µM (active) | 0.0719 µM (active) | < 0.0164 µM (active) | 0.0703 µM (active) | 0.0354 µM (active) | 0.0416 µM (active) | 0.0399 µM (active) | 0.0143 µM (active)
